Assay [1] has as its system interferon-α. As to the kind of experiment: Interferon-α induction in human cells, PBM. Conditions: 24 hours. It is filed as cell-based.
Assay [2] relates to interferon. As to the kind of experiment: Interferon induction in mice. The class given is in vivo. The settings on record: mouse serum. As to the method:
One hour later blood samples are withdrawn from the first group. The samples are pooled then centrifuged. The serum is removed from the centrifuge tube, split into two portions, then placed in freezing vials and maintained at −70° C. until analysis. This procedure is repeated at 2 hours with the second group of mice and at 4 hours with the third group of mice. Samples are assayed as described above in connection with the analysis of interferon induction in human cells. The results are expressed in the table below as α/β reference units/mL based on the value obtained for a mouse MU-1-IF standard. Results are shown in the table below wherein results designated as “<” a certain number indicate that interferon was not detectable in amounts above the lower sensitivity level of the assay.

Turning to `Nc1nc2ccccc2c2c1nc(CN1CCOCC1)n2Cc1ccccc1` [Example 29, 2-Morpholinomethyl-1-phenylmethyl-1H-imidazo-[4,5-c]quinolin-4-amine], the Interferon-α induction in assay [1] (dose concentration 0.10 μg/mL) is <5.4 α Reference Units/mL; in assay [1] (dose concentration 0.50 μg/mL), 440 α Reference Units/mL; in assay [1] (dose concentration 1.0 μg/mL), 1000 α Reference Units/mL; in assay [1] (dose concentration 5.0 μg/mL), 580 α Reference Units/mL. The “Interferon induction in mice” value in assay [2] (oral 0.3 mg/kg, 1 hr) is less than 45 Reference Units/mL; in assay [2] (oral 0.3 mg/kg, 2 hr), less than 45 Reference Units/mL; in assay [2] (oral 0.3 mg/kg, 4 hr), less than 45 Reference Units/mL; in assay [2] (oral 1 mg/kg, 1 hr), less than 45 Reference Units/mL; in assay [2] (oral 1 mg/kg, 2 hr) it was less than 45 Reference Units/mL; in assay [2] (oral 1 mg/kg, 4 hr) it was less than 45 Reference Units/mL. In addition, the “Interferon induction in mice” value in assay [2] (oral 3 mg/kg, 1 hr) is less than 45 Reference Units/mL; in assay [2] (oral 3 mg/kg, 2 hr) it was less than 45 Reference Units/mL; in assay [2] (oral 3 mg/kg, 4 hr), less than 45 Reference Units/mL; in assay [2] (oral 10 mg/kg, 1 hr), less than 45 Reference Units/mL; in assay [2] (oral 10 mg/kg, 2 hr), less than 45 Reference Units/mL; in assay [2] (oral 10 mg/kg, 4 hr), less than 45 Reference Units/mL.

Turning to `COCc1nc2c(N)nc3ccccc3c2n1Cc1ccccc1` [Example 104, 2-Methoxymethyl-1-phenylmethyl-1H-imidazo[4,5-c]quinolin-4-amine], the Interferon-α induction in assay [1] (dose concentration 0.01 μg/mL) was <2.7 α Reference Units/mL; in assay [1] (dose concentration 0.05 μg/mL), <2.7 α Reference Units/mL; in assay [1] (dose concentration 0.10 μg/mL) it was 310 α Reference Units/mL; in assay [1] (dose concentration 0.50 μg/mL), 180 α Reference Units/mL; in assay [1] (dose concentration 1.0 μg/mL), 140 α Reference Units/mL; in assay [1] (dose concentration 5.0 μg/mL), 310 α Reference Units/mL. In addition, the “Interferon induction in mice” value is less than 380 Reference Units/mL in assay [2] (oral 0.3 mg/kg, 1 hr); less than 380 Reference Units/mL in assay [2] (oral 0.3 mg/kg, 2 hr); less than 380 Reference Units/mL in assay [2] (oral 0.3 mg/kg, 4 hr); “˜780 Reference Units/mL” in assay [2] (oral 1 mg/kg, 1 hr); “˜780 Reference Units/mL” in assay [2] (oral 1 mg/kg, 2 hr); “˜380 Reference Units/mL” in assay [2] (oral 1 mg/kg, 4 hr). In addition, the “Interferon induction in mice” value is recorded as “≦660 Reference Units/mL” in assay [2] (oral 3 mg/kg, 1 hr); 2200 Reference Units/mL in assay [2] (oral 3 mg/kg, 2 hr); less than 380 Reference Units/mL in assay [2] (oral 3 mg/kg, 4 hr); 3400 Reference Units/mL in assay [2] (oral 10 mg/kg, 1 hr); 4500 Reference Units/mL in assay [2] (oral 10 mg/kg, 2 hr); “≦660 Reference Units/mL” in assay [2] (oral 10 mg/kg, 4 hr).

Regarding `CC(=O)OC(C)c1nc2c(N)nc3ccccc3c2n1CC(C)C.O` (stereo not drawn) [Example 69, 4-Amino-α-methyl-1-(2-methylpropyl)-1H-imidazo[4,5-c]quinoline-2-methyl Acetate Hydrate], the Interferon-α induction in assay [1] (dose concentration 0.01 μg/mL) was <6.4 α Reference Units/mL; in assay [1] (dose concentration 0.05 μg/mL), <6.4 α Reference Units/mL; in assay [1] (dose concentration 0.10 μg/mL), 1000 α Reference Units/mL; in assay [1] (dose concentration 0.50 μg/mL), 680 α Reference Units/mL; in assay [1] (dose concentration 1.0 μg/mL), 390 α Reference Units/mL; in assay [1] (dose concentration 5.0 μg/mL), 900 α Reference Units/mL. In addition, the “Interferon induction in mice” value in assay [2] (oral 0.3 mg/kg, 1 hr) is on record as less than 150 Reference Units/mL; in assay [2] (oral 0.3 mg/kg, 2 hr) it was less than 150 Reference Units/mL; in assay [2] (oral 0.3 mg/kg, 4 hr), less than 150 Reference Units/mL; in assay [2] (oral 1 mg/kg, 1 hr) it was less than 150 Reference Units/mL; in assay [2] (oral 1 mg/kg, 2 hr), less than 150 Reference Units/mL; in assay [2] (oral 1 mg/kg, 4 hr), less than 150 Reference Units/mL. Moreover, the “Interferon induction in mice” value in assay [2] (oral 3 mg/kg, 1 hr) is recorded as “≦270 Reference Units/mL”; in assay [2] (oral 3 mg/kg, 2 hr), “≦150 Reference Units/mL”; in assay [2] (oral 3 mg/kg, 4 hr), less than 150 Reference Units/mL; in assay [2] (oral 10 mg/kg, 1 hr), 1000 Reference Units/mL; in assay [2] (oral 10 mg/kg, 2 hr), 1000 Reference Units/mL; in assay [2] (oral 10 mg/kg, 4 hr), “≦340 Reference Units/mL”.

As for `CCCCC(c1nc2c(N)nc3ccccc3c2n1CC(C)C)N1CCOCC1` (stereo not drawn) [Example 62, 2-[1-(1-Morpholino)pentyl]1-1-(2-methylpropyl)-1H-imidazo[4,5-c]quinolin-4-amine], the Interferon-α induction in assay [1] (dose concentration 0.10 μg/mL) is recorded as <5 α Reference Units/mL; in assay [1] (dose concentration 0.50 μg/mL), <5 α Reference Units/mL; in assay [1] (dose concentration 1.0 μg/mL) it was 31 α Reference Units/mL; in assay [1] (dose concentration 5.0 μg/mL) it was 760 α Reference Units/mL. Also, the “Interferon induction in mice” value in assay [2] (oral 0.3 mg/kg, 1 hr) is less than 56 Reference Units/mL; in assay [2] (oral 0.3 mg/kg, 2 hr), less than 56 Reference Units/mL; in assay [2] (oral 0.3 mg/kg, 4 hr), less than 56 Reference Units/mL; in assay [2] (oral 1 mg/kg, 1 hr), less than 56 Reference Units/mL; in assay [2] (oral 1 mg/kg, 2 hr), 97 Reference Units/mL; in assay [2] (oral 1 mg/kg, 4 hr), less than 56 Reference Units/mL. Further, the “Interferon induction in mice” value in assay [2] (oral 3 mg/kg, 1 hr) came to 220 Reference Units/mL; in assay [2] (oral 3 mg/kg, 2 hr) it was 870 Reference Units/mL; in assay [2] (oral 3 mg/kg, 4 hr), 160 Reference Units/mL; in assay [2] (oral 10 mg/kg, 1 hr), 380 Reference Units/mL; in assay [2] (oral 10 mg/kg, 2 hr), 1100 Reference Units/mL; in assay [2] (oral 10 mg/kg, 4 hr), 380 Reference Units/mL.

Regarding `CCOCc1nc2c(N)nc3ccccc3c2n1CCC(C)C.Cl` [Example 109, 2-Ethoxymethyl-1-(3-methylbutyl)-1H-imidazo[4,5-c]quinolin-4-amine Hydrochloride], the Interferon-α induction in assay [1] (dose concentration 0.01 μg/mL) is <1.4 α Reference Units/mL; in assay [1] (dose concentration 0.05 μg/mL), 1000 α Reference Units/mL; in assay [1] (dose concentration 0.10 μg/mL) it was 1000 α Reference Units/mL; in assay [1] (dose concentration 0.50 μg/mL), 97 α Reference Units/mL; in assay [1] (dose concentration 1.0 μg/mL), 83 α Reference Units/mL; in assay [1] (dose concentration 5.0 μg/mL) it was 78 α Reference Units/mL.

As for `CC(C)Cn1c(C(O)c2ccc(Cl)cc2)nc2c(N)nc3ccccc3c21` (stereo not drawn) [Example 55, 4-Amino-α-(4-chlorophenyl)-1-(2-methylpropyl)-1H-imidazo[4,5-c]quinoline-2-methanol], the Interferon-α induction in assay [1] (dose concentration 0.10 μg/mL) is recorded as <4 α Reference Units/mL; in assay [1] (dose concentration 0.50 μg/mL) it was 1500 α Reference Units/mL; in assay [1] (dose concentration 1.0 μg/mL), 1500 α Reference Units/mL; in assay [1] (dose concentration 5.0 μg/mL), 490 α Reference Units/mL.

For `COCc1nc2c(N)nc3ccccc3c2n1CC(C)(C)O` [Example 111, 4-Amino-α,α-dimethyl-2-methoxymethyl-1H-imidazo[4,5-c]quinoline-1-ethanol], the Interferon-α induction in assay [1] (dose concentration 0.01 μg/mL) was 190 α Reference Units/mL; in assay [1] (dose concentration 0.05 μg/mL), 65 α Reference Units/mL; in assay [1] (dose concentration 0.10 μg/mL) it was 65 α Reference Units/mL; in assay [1] (dose concentration 0.50 μg/mL), 49 α Reference Units/mL; in assay [1] (dose concentration 1.0 μg/mL) it was 55 α Reference Units/mL; in assay [1] (dose concentration 5.0 μg/mL), 61 α Reference Units/mL.
